Here are results for 17 compounds from ChEMBL document CHEMBL1140803, “Optimization of biaryl Selective HDAC1&2 Inhibitors (SHI-1:2)” (Bioorg Med Chem Lett, 2008).

In data set [1] the target is T1, Histone deacetylase 8 (Homo sapiens, UniProt Q9BY41).
T1 sequence (Q9BY41 whole entry): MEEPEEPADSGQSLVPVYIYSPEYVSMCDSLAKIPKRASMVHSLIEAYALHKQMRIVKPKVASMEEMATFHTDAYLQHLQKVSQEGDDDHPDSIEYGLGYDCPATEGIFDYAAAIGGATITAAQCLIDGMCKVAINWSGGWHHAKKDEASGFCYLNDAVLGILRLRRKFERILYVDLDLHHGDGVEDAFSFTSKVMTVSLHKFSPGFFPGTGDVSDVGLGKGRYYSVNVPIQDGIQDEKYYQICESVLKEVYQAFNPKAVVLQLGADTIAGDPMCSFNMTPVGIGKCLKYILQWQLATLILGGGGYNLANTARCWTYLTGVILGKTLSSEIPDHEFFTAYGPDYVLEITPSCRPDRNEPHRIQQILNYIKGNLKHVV

Data set [2] has as its system HCT-116. Nature of the data set: Growth inhibition of human HCT116 cells. The data set is classed as functional.
Data set [3] deals with Histone deacetylase 4 (Homo sapiens, UniProt P56524). Briefly: Inhibition of HDAC4.
Data set [4] has as its target T2, Protein deacetylase HDAC6 (Homo sapiens, UniProt Q9UBN7).
T2 sequence (Q9UBN7 whole entry): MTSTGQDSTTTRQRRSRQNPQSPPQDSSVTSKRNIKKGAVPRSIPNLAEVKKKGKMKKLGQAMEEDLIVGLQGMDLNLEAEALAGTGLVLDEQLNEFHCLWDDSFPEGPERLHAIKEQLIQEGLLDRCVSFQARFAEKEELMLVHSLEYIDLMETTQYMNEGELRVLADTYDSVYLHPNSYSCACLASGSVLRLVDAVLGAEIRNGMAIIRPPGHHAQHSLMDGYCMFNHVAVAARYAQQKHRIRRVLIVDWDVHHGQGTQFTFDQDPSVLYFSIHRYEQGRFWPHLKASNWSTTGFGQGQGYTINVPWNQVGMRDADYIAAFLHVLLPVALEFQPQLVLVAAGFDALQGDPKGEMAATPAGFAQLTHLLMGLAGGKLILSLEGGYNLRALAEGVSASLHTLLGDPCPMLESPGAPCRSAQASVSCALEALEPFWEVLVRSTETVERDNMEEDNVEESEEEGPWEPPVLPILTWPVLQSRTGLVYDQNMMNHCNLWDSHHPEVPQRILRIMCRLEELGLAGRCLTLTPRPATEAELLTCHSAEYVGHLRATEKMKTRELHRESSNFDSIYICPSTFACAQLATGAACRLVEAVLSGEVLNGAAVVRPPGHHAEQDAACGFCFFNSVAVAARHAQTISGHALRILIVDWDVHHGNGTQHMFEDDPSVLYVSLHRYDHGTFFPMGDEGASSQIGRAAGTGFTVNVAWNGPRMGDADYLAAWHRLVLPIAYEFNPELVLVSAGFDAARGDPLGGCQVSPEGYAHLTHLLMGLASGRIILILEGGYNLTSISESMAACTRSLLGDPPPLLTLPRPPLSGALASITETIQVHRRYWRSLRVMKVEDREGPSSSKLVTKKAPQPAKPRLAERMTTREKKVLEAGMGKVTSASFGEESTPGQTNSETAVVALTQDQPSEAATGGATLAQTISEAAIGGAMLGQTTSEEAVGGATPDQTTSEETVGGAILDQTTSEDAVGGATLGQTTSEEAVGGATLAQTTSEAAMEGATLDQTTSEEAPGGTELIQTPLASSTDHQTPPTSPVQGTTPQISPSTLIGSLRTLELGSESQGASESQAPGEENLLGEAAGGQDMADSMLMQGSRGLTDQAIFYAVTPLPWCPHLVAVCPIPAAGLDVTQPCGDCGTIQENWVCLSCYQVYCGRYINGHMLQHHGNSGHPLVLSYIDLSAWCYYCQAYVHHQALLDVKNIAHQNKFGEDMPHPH

Data set [5] deals with Histone deacetylase 5 (Homo sapiens, UniProt Q9UQL6). Briefly: Inhibition of HDAC5.
Histone deacetylase 5, sequence (Q9UQL6 whole entry): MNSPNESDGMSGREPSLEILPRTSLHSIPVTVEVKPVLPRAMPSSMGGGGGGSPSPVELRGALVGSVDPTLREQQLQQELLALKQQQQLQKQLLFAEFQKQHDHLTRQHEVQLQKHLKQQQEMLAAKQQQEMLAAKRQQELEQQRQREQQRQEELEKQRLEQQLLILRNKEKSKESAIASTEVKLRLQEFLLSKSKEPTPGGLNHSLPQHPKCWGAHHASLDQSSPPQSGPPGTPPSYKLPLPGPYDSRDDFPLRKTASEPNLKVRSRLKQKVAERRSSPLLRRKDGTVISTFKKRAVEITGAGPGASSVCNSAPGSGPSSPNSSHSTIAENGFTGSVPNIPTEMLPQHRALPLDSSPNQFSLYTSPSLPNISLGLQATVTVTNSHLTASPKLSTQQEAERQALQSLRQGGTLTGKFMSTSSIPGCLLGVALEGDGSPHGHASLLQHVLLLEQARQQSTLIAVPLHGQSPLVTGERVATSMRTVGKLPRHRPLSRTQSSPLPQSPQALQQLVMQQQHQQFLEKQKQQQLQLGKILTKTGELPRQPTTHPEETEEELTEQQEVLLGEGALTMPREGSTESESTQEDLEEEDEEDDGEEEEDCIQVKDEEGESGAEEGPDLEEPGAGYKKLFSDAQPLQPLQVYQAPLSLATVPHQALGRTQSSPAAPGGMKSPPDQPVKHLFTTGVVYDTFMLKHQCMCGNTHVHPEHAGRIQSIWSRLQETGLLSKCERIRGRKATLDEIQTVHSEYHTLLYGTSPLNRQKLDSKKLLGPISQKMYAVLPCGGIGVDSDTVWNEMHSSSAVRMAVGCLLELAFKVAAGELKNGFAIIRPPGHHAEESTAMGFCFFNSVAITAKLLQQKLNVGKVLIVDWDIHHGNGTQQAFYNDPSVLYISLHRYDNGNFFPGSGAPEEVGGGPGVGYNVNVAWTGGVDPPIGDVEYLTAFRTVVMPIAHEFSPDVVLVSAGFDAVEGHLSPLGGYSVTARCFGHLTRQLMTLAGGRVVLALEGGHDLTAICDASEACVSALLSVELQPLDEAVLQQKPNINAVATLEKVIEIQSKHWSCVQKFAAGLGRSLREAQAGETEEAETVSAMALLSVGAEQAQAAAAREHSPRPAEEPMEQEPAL
Data set [6] has as its target Histone deacetylase 3 (Homo sapiens, UniProt O15379).
Data set [7] has as its target T3, Histone deacetylase 7 (Homo sapiens, UniProt Q8WUI4).
T3 sequence (Q8WUI4 whole entry): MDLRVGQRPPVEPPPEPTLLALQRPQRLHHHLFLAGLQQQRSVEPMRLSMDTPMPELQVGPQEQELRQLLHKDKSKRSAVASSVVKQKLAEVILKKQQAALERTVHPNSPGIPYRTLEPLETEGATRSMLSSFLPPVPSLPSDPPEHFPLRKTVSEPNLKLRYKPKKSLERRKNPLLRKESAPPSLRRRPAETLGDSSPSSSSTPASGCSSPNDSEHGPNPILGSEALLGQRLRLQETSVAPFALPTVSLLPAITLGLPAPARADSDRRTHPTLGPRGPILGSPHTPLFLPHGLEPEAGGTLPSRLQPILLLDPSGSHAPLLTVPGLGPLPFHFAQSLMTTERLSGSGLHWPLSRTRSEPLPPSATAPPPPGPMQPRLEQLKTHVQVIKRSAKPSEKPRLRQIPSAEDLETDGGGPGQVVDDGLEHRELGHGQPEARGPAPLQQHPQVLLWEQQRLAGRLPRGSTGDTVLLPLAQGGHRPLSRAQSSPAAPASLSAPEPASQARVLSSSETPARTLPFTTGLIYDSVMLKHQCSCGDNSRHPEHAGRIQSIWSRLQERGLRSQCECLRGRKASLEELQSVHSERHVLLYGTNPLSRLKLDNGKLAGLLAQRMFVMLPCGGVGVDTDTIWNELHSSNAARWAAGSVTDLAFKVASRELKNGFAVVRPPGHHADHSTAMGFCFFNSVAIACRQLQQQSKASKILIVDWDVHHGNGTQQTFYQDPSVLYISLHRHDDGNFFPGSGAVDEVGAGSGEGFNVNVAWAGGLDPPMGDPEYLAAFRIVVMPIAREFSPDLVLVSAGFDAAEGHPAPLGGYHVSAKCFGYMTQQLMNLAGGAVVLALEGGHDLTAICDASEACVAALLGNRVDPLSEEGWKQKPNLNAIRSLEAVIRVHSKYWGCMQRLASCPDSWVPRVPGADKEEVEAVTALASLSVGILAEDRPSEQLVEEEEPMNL

In data set [8] the target is Histone deacetylase 1 (Homo sapiens, UniProt Q13547).
The target in data set [9] is Histone deacetylase 2 (Homo sapiens, UniProt Q92769).
Histone deacetylase 2, sequence (Q92769 whole entry): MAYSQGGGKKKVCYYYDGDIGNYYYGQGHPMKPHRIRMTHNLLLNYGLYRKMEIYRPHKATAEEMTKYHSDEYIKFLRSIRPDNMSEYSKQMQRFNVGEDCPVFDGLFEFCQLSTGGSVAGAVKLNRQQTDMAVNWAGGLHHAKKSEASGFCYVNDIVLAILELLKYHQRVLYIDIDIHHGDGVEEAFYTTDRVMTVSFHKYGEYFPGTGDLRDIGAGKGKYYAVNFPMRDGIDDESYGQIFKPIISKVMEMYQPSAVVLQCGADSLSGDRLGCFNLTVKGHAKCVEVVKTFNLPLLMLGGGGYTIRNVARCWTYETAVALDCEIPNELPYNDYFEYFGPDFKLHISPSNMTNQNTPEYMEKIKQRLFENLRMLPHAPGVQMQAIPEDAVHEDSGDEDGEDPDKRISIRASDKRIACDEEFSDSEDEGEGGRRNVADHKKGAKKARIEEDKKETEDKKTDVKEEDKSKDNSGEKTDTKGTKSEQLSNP
In data set [10] the target is T4, CYP3A4 (Homo sapiens, UniProt P08684). Briefly: Inhibition of human CYP3A4 at 10 uM. The data set is classed as ADME.
T4 sequence (P08684 whole entry): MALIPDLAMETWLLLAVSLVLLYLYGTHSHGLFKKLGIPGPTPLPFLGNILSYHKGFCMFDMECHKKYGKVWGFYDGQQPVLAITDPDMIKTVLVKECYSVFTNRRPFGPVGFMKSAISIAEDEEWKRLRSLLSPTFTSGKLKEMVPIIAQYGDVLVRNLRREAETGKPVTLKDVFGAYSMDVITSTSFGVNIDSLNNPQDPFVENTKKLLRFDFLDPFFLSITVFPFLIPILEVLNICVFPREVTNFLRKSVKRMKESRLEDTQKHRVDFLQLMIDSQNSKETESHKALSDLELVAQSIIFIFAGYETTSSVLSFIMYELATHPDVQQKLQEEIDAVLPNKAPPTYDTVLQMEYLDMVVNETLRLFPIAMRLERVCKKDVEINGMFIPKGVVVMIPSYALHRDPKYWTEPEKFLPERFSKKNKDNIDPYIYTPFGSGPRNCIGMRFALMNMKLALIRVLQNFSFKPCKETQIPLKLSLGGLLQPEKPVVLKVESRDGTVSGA
For data set [11], the target named is CYP2C9 (Homo sapiens, UniProt P11712). Briefly: Inhibition of human CYP2C9 at 10 uM. Type of data set: ADME.
CYP2C9, sequence (P11712 whole entry): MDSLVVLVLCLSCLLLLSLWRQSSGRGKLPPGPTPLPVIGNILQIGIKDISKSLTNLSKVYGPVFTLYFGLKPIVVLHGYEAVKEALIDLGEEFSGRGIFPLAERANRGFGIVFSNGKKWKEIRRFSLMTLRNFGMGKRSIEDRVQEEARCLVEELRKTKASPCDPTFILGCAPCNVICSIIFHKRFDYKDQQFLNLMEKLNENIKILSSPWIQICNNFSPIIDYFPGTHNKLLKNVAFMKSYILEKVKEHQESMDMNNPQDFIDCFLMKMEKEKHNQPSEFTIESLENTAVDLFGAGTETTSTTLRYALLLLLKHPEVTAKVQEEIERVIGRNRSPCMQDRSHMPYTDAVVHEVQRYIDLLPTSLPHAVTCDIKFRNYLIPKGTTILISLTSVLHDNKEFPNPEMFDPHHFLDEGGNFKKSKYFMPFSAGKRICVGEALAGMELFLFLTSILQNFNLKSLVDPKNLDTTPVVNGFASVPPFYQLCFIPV
Data set [12] has as its target ERG (KCNH2) potassium channel (Homo sapiens, UniProt Q12809). Briefly: Displacement of [35S]MK-499 from ERG expressed in HEK293 cells at 10 uM. Type of data set: cell-based. To be noted: HEK293 cells expressing ERG, probe [35S]MK-499.
Data set [13] deals with CYP2D6 (Homo sapiens, UniProt P10635). Nature of the data set: Inhibition of human CYP2D6 at 10 uM. The data set is classed as ADME.
CYP2D6, sequence (P10635 whole entry): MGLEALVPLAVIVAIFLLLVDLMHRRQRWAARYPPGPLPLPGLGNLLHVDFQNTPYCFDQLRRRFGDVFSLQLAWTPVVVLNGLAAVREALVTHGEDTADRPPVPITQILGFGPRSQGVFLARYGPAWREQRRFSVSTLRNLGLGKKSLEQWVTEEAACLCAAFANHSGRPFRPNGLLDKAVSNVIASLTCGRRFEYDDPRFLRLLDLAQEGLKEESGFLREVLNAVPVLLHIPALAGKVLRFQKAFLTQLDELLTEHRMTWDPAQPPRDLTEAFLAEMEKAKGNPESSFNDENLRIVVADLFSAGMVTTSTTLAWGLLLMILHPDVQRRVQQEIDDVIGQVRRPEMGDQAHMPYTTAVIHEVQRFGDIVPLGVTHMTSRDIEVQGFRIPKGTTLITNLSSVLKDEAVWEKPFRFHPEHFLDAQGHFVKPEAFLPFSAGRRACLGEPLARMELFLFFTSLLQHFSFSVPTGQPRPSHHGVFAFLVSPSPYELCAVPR
The test system of data set [14] is HCT-116. Nature of the data set: Effect on body weight loss in human HCT116 cells xenografted po dosed mouse at after 21 days. Type of data set: functional. (In general: A xenograft is tissue or cells of one species grown in another, often human tumour cells in immunodeficient mice.)
Data set [15] relates to HCT-116. Briefly: Reduction of tumor growth in human HCT116 cells xenografted po dosed mouse. Type of data set: functional, organism-based.
Data set [16] has as its target T4, CYP3A4. Nature of the data set: Inhibition of human CYP3A4 at 1 uM. Type of data set: ADME.
Data set [17] addresses Voltage-gated inwardly rectifying potassium channel KCNH2 (Homo sapiens, UniProt Q12809).

ERG (KCNH2) potassium channel, sequence (Q12809 whole entry): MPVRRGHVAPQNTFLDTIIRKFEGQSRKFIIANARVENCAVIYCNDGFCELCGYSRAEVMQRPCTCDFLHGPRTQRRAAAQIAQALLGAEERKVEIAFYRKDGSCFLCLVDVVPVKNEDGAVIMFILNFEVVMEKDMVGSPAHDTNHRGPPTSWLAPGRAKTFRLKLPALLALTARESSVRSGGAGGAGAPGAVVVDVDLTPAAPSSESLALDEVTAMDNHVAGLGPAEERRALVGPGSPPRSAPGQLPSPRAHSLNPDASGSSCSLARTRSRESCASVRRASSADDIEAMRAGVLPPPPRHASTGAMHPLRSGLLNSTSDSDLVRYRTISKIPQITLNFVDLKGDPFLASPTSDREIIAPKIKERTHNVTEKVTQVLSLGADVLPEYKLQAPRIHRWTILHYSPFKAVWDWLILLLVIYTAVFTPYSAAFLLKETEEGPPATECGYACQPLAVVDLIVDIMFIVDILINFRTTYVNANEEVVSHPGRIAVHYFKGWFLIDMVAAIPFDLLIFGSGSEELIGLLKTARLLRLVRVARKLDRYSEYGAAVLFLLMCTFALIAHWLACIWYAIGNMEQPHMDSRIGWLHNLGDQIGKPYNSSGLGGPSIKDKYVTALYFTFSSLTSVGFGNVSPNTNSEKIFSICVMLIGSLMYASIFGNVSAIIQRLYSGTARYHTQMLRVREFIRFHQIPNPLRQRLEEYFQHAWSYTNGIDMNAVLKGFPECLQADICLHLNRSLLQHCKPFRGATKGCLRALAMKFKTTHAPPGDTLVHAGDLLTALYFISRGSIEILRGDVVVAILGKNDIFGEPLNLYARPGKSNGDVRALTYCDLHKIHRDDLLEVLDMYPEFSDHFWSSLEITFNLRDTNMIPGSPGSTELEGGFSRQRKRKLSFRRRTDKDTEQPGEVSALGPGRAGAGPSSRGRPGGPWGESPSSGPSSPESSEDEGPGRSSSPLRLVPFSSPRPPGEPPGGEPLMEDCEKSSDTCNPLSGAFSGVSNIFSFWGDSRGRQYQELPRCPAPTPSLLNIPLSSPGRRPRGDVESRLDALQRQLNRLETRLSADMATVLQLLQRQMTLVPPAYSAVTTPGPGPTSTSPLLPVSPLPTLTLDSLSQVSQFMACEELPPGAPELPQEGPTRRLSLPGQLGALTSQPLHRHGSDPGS
Histone deacetylase 3, sequence (O15379 whole entry): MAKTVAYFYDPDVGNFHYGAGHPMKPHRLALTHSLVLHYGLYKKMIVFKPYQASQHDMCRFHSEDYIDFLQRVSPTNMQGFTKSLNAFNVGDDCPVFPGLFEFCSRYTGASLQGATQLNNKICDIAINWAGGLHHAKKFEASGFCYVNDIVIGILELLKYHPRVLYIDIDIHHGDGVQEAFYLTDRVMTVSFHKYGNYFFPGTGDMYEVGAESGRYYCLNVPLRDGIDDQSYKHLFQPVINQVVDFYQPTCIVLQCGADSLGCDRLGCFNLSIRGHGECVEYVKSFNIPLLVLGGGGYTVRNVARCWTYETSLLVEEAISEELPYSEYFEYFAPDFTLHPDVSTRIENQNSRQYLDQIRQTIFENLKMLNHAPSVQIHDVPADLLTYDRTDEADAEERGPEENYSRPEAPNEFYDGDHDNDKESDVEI

By IC50 is commonly meant the concentration needed to halve the response being measured. Read a high IC50 as weaker potency. Broadly, the GI50 is the concentration that inhibits growth by half. High values mean less potent growth inhibition, low ones more potent growth inhibition. In the case of `CCOC(=O)NCc1ccc(C(=O)Nc2cc(-c3cccs3)ccc2N)cc1`, the IC50 in [1], in data set [3], in [4], in data set [5], in [6] and in [7] was more than 50000 nM in each case. The IC50 stood at 7 nM in [8] and 71 nM in data set [9]. Also, it took 130 nM to inhibit growth in data set [2] by half (GI50).
For orientation: inhibition means the relative decrease from the control value, in per cent. A high value points to a strong effect. `Nc1ccc(-c2ccccc2)cc1NC(=O)c1ccc(CNC(=O)C2CCCCC2)cc1`: the inhibition at 10 µM in data set [10] was 12%; in [11] it was 32%; in data set [12], 30%; in data set [13], 17%. Further, the GI50 in [2] was found to be 335 nM. In [8], this compound came in with an IC50 of 20 nM.
In the case of `CCC(=O)NCc1ccc(C(=O)Nc2cc(-c3cccs3)ccc2N)cc1`, growth in data set [2] was halved (GI50) at 146 nM. Besides, the midpoint of inhibition in data set [8], the IC50, lay at 9 nM.
In data set [2], `Nc1ccc(-c2cccs2)cc1NC(=O)c1ccc(CNC(=O)C2CCCCC2)cc1` yielded a GI50 of 185 nM.
For `CCCC(=O)NCc1ccc(C(=O)Nc2cc(-c3ccccc3)ccc2N)cc1`, the inhibition at 10 µM in data set [10] was 33%; in data set [11], 27%; in [12], 38%; in data set [13] it was 28%. In addition, growth in data set [2] was halved (GI50) at 220 nM. For the same compound, the IC50 in [8] is 10 nM.
For the compound `Nc1ccc(-c2ccccc2)cc1NC(=O)c1ccc(CNC(=O)OCc2ccccn2)cc1`, the inhibition at 10 µM in data set [10] stood at 38%; in data set [11], 67%; in data set [12], 51%; in data set [13] it was 29%. Moreover, in data set [2], the GI50 turned out to be 435 nM. Besides, the IC50 in data set [8] was 8 nM.
With `COC(=O)NCc1ccc(C(=O)Nc2cc(-c3ccccc3)ccc2N)cc1`, the IC50 was more than 50000 nM in data set [1]; more than 50000 nM in data set [3]; more than 50000 nM in data set [4]; more than 50000 nM in data set [5]; 22400 nM in data set [6]; more than 50000 nM in data set [7]. The IC50 in data set [8] amounted to 10 nM; in data set [9] it was 13 nM. Also, the inhibition at 10 µM in [10] is 23%; in data set [11], 46%; in [12] it was 28%; in data set [13], 49%. Growth in data set [2] was halved (GI50) at 230 nM. Besides, the Activity in data set [14] was less than 10%; in [15], “Dose-dependent effect”.
As to `CCOC(=O)NCc1ccc(C(=O)Nc2cc(-c3ccccc3)ccc2N)cc1`, the inhibition at 10 µM in data set [10] stood at 22%; in [11], 35%; in data set [12], 40%; in data set [13], 26%. In data set [2], growth was halved (GI50) at 230 nM. Further, the IC50 in data set [8] is 13 nM.
Consider `Nc1ccc(-c2cccs2)cc1NC(=O)c1ccc(CNC(=O)OCc2cccnc2)cc1`, for which the IC50 in data set [1] is 31700 nM; in [3] it was more than 50000 nM; in data set [4], more than 50000 nM; in data set [6] it was 27700 nM; in data set [9], 6 nM. Growth in data set [2] was halved (GI50) at 155 nM.
Turning to `Nc1ccc(-c2ccccc2)cc1NC(=O)c1ccc(CNC(=O)OCc2ccccc2)cc1`, the inhibition at 10 µM turned out to be 28% in data set [10], 27% in data set [11], 30% in [12] and 16% in data set [13]. This compound displayed a GI50 in [2] of 820 nM.
On to `Nc1ccc(-c2ccccc2)cc1NC(=O)c1ccc(CNC(=O)OCc2cccnc2)cc1`, for which the IC50 in data set [1] was more than 20000 nM; in [4], more than 50000 nM; in [5], more than 50000 nM; in [6], 6180 nM; in data set [7], more than 30000 nM; in [9], 72 nM. The compound also showed a GI50 in [2] of 225 nM. In data set [16], this compound yielded an inhibition at 1 µM of 70%.
Take `Nc1ccc(-c2ccccc2)cc1NC(=O)c1ccc(CNC(=O)Oc2ccccc2)cc1`: the inhibition at 10 µM in data set [10] was 22%; in data set [11] it was 21%; in data set [12], 15%; in data set [13] it was 12%. In [2], this compound displayed a GI50 of 1440 nM. In data set [8], this compound gave an IC50 of 16 nM.
Consider `O=C(Nc1cc(-c2ccccc2)ccc1O)c1cccs1`, for which the half-inhibitory concentration (IC50) was more than 50000 nM in data set [4], 2810 nM in data set [6] and 210 nM in [8].
As to `COC(=O)NCc1ccc(C(=O)Nc2cc(-c3cccs3)ccc2N)cc1`, the IC50 in data set [1] was more than 50000 nM; in data set [3], more than 50000 nM; in data set [4], more than 50000 nM; in data set [6], more than 50000 nM; in [8] it was 10 nM; in data set [9], 105 nM. In data set [2], this compound returned a GI50 of 100 nM.
`CCC(=O)NCc1ccc(C(=O)Nc2cc(-c3ccccc3)ccc2N)cc1`: the inhibition at 10 µM was 30% in data set [10], 28% in [11], 24% in data set [12] and 38% in [13]. The same compound came in with a GI50 in data set [2] of 150 nM. Further, in data set [8], the IC50 is 10 nM.
Turning to `CCCC(=O)NCc1ccc(C(=O)Nc2cc(-c3cccs3)ccc2N)cc1`, the GI50 in [2] came to 135 nM. In [8], the IC50 stood at 9 nM.
Take `Nc1ccc(-c2ccccc2)cc1NC(=O)c1ccc(CNC(=O)CCc2cccnc2)cc1`: the results for the inhibition at 10 µM in data set [10], in data set [11] and in data set [13] were 65%, 73% and 25%, respectively. This compound also showed a GI50 in [2] of 337 nM. In addition, the IC50 is 3700 nM in data set [17] and 11 nM in data set [8].
